Data on two compounds can be found in patent US8399466B2, “Composition for regenerative treatment of cartilage disease” (Mitsubishi Tanabe Pharma Corporation, priority 2001, dated 2013).

Experiment [1] relates to human articular chondrocytes. As to the kind of experiment: Increase of intracellular cAMP in human articular chondrocytes (cAMP EIA). In kind it is cell-based. Particulars: PGE2 1 μM, 30 minutes, vehicle 0.4. The method, then:
Human articular cartilage (articular cartilage of degenerative malum coxae patient) was soaked in phosphate buffer (pH 7.2) and only the cortical layer of the joint portion was scrapped with, a knife into a 50 ml tube containing same buffer. The collected knee joint cortical layer was cut into as small sections as possible on a dish with a razor and transferred to a centrifuge tube.
To the centrifuge tube, phosphate buffer (pH 7.2) containing 1 mg/ml of hyaluronidase (SIGMA: Cat. No. H-3506) was added and shaken at 37° C. for 15 minutes. The precipitates were separated by centrifugation (2,000 rpm, 5 minutes) and added to Hank's balanced salt solution (GIBCO; Cat. No. 15050-065) containing 0.25% trypsin and shaken at 37° C. for 30 minutes.
After separation of precipitates by centrifugation (2,000 rpm, 5 minutes), α-minimum essential medium (GIBCO; Cat. No. 12571-063) containing 0.25% collagenase for cell diffusion (Wako Pure Chemical Industries, Ltd., 034-10533) and 10% fetal calf serum (GIBCO; Cat. No. 10099-141) were added to the precipitates and shaken at 37° C. overnight.
Cartilage fragments were removed using a 40 μm Cell Strainer (FALCON; Cat. No. 2340), and α-minimum essential medium containing 10% fetal calf serum was added to the collagenase-treated cells and centrifuged (1,400 rpm, 10 minutes).
The precipitates were washed three times with α-minimum essential medium containing 10% fetal calf serum and suspended in the same medium to an appropriate volume and seeded into 48-well plates (50,000 cells/well). On the next day, the medium was replaced with α-minimum essential medium containing 10% fetal calf serum. The α-minimum essential medium used contained antibiotics (100 U/ml penicillin G and 100 μg/ml streptomycin sulfate) and an antifungal (0.25 μg/ml amphotericin B) (GIBCO; Cat. No. 15240-062). […]
After 30 minutes cultivation, medium was discarded. […] The residue was dissolved in an assay buffer attached with cAMP EIA system (Amersham Pharmacia Biotech; Cat. No. RPN225) and cAMP concentration was measured with said system.

A further experiment concerns articular chondrocytes. As to the kind of experiment: Increase of matrix production of articular chondrocytes (Alcian blue staining of proteoglycan). Type of experiment: cell-based, rabbit. Particulars: for Proteoglycan Production (%): cultivation until day 5, vehicle = 100; for matrix production promoting activity: summary of Table 1. The method, then: Four NZW line rabbits (Kitayama Labes., Co Ltd.; male; 4-week-old) were sacrificed with bleeding under ether anesthesia and femur knee joints were collected aseptically. The collected knee joints were stored in phosphate buffer (pH 7.2) containing 0.2% glucose and only the cortical layer of knee joint was scrapped with a surgical knife into a 50 ml tube containing phosphate buffer (pH 7.2) containing 0.2% glucose. The collected knee joint cortical layer was cut into as small sections as possible on a dish with a razor and shaken at 37° C. for 15 minutes in phosphate buffer containing 0.2% glucose, supplied with 10× trypsin-ethylenediamine tetraacetic acid (EDTA)·4 Na salt (GIBCO; Cat. No. 15400-054) (50 ml, with 100 mg of trypsin and 40 mg of EDTA·4Na; pH 7.2). After shaking, the sample was centrifuged (1,400 rpm) to collect precipitates, and the precipitates were washed twice with 40 ml of phosphate buffer containing 0.2% glucose. The washed precipitates were combined with 40 ml of serum-free α-minimum essential medium (MEM: GIBCO; Cat: No. 12571-063) containing 60 mg of collagenase for cell diffusion (Wako Pure Chemical Industries, Ltd., 034-10533) and transferred to a 100 ml beaker containing a sterilized stirrer bar. Under stirring with the stirrer bar, the collagenase digestion was carried on for about 1 hour in a CO2 incubator at 37° C. Cartilage fragments were removed from the collagenase-treated cells using a […] Cell Strainer ([FALCON; Cat. No. 2340]). To the residual treated cells was added 10 ml of α-MEM medium containing 10% fetal calf serum (FCS), and centrifuged (1,400 rpm). The precipitates were washed with 10% FCS-αMEM medium twice, suspended in appropriate volume of the same medium and the resultant suspension was seeded into collagen type II (Wako Pure Chemical Industries, Ltd., 033-13901)-coated plates (48 well) at 20,000 cells/well. On the next day, the medium was replaced with 10% FCS-αMEM medium.
When cells reached to confluent after the medium exchange procedure above, the medium for test group was replaced with test compound-containing medium (including 0.1% dimethylsulfoxide as a vehicle). As a medium to which a test compound is added, 10% FCS-αMEM medium containing 0.2 mM ascorbic acid was used. The day on which test compound-containing medium was added for the first time was defined as “day 1”. The medium exchange with the same medium was again conducted at day 3 and the cultivation continued until day 5. As to the control group, the medium was exchanged at the same time using the same medium as the test group except that it is free of test compound (containing vehicle only), and the cultivation was carried out in the same manner. After completion of cultivation, the supernatant was removed from the culture medium. Cells were fixed by addition of 0.25 ml of neutral buffer containing 4% paraformaldehyde and incubation for 2 hours. Cells were washed three times with 1 ml of phosphate buffer (pH 7.2) and then stained for 4 hours with 0.1% Alcian blue 8GX (Sigma; A3157) dissolved in 0.1 M hydrochloric acid, which Alcian blue selectively stains cartilage matrix proteoglycan. After staining, the cells were washed 3 times with 1 ml of phosphate buffer (pH 7.2). Alcian blue which had stained cartilage matrix was dissolved with 0.25 ml of aqueous 6 M guanidine hydrochloride solution and a portion of the solution was used to determine the absorbance at 620 nm. The amounts of Alcian blue used for staining was calculated from the absorbance, which in turn was used for the estimation of the amount of matrix (proteoglycan).

Consider `CCOc1cc2cc(CO)c(CO)c(-c3ccnc(-n4nc(-c5cccnc5)c5ccccc5c4=O)c3)c2cc1OCC` [Compound (2)], for which the “cAMP Production (picomol/well)” value was 23.2 picomol/well in experiment [1] (1 × 10^−5) and 13.8 picomol/well in experiment [1] (1 × 10^−6). Moreover, the “Proteoglycan Production (%)” value with articular chondrocytes (1 × 10^−5 M) was found to be 128%; in the experiment with articular chondrocytes (1 × 10^−6 M) it was 125%. Also, the “matrix production promoting activity” value in the experiment on articular chondrocytes is “exert matrix production promoting activity”.
Take `COc1ccc(C(=O)Nc2c(Cl)cncc2Cl)cc1OC1CCCC1` [Compound (11)]: the “cAMP Production (picomol/well)” value in experiment [1] (1 × 10^−5) was found to be 10.6 picomol/well. The “Proteoglycan Production (%)” value with articular chondrocytes (1 × 10^−6 M) was determined as 112%. For the same compound, the “matrix production promoting activity” value in the experiment with articular chondrocytes was “exert matrix production promoting activity”.
